Where “and” joins values, the source holds several entries; their conditions need not be identical. Equal values may be shown once.
Experiments:
Assay type in all cases: in vivo
[1] = system: vetch aphid (Megoura viciae); assay: Control of vetch aphid on broad bean leaf disks, contact or systemic (B.1)
Description: For evaluating control of vetch aphid (Megoura viciae) through contact or systemic means the test unit consisted of 24-well-microtiter plates containing broad bean leaf disks. The compounds or mixtures were formulated using a solution containing 75% by weight water and 25% by weight DMSO. Different concentrations of formulated compounds or mixtures were sprayed onto the leaf disks at 2.5 μl, using a custom built micro atomizer, at two replications.
(§1) For experimental mixtures in these tests identical volumes of both mixing partners at the desired concentrations respectively, were mixed together.
After application, the leaf disks were air-dried and 5-8 adult aphids placed on the leaf disks inside the microtiter plate wells. The aphids were then allowed to suck on the treated leaf disks and incubated at 23+1° C., 50+5% RH for 5 days. Aphid mortality and fecundity was then visually assessed.

[2] = system: green peach aphid (Myzus persicae); assay: Control of green peach aphid through systemic means, artificial diet under membrane (B.2)
Excerpt: For evaluating control of green peach aphid (Myzus persicae) through systemic means the test unit consisted of 96-well-microtiter plates containing liquid artificial diet under an artificial membrane.
The compounds or mixtures were formulated using a solution containing 75% by weight water and 25% by weight DMSO. Different concentrations of formulated compounds or mixtures were pipetted into the aphid diet, using a custom built pipetter, at two replications.
For experimental mixtures in these tests identical volumes of both mixing partners at the desired concentrations respectively were mixed together.
After application, 5-8 adult aphids were placed on the artificial membrane inside the microtiter plate wells. The aphids were then allowed to suck on the treated aphid diet and incubated at 23±1° C., 50±5% RH for 3 days. Aphid mortality and fecundity was then visually assessed.

[3] = system: Greenhouse Whitefly (Trialeurodes vaporariorum); assay: Control of greenhouse whitefly, egg plant leaf disk with white fly eggs (B.5)
Description: (§2) For evaluating control of Greenhouse Whitefly (Trialeurodes vaporariorum) the test unit consisted of 96-well-microtiter plates containing a leaf disk of egg plant leaf disk with white fly eggs. The compounds or mixtures were formulated using a solution containing 75% by weight water and 25% by weight DMSO. Different concentrations of formulated compounds or mixtures were sprayed onto the insect diet at 2.5 μl, using a custom built micro atomizer, at two replications. For experimental mixtures in these tests identical volumes of both mixing partners at the desired concentrations respectively, were mixed together.
After application, microtiter plates were incubated at 23±1° C., 65±5% RH for 6 days. Mortality of hatched crawlers was then visually assessed.

[4] = system: boll weevil (Anthonomus grandis); assay: Control of boll weevil, insect diet with eggs (B.3)
Description: For evaluating control of boll weevil (Anthonomus grandis) the test unit consisted of 24-well-microtiter plates containing an insect diet and 20-30 A. grandis eggs.
as §2, with “The” for “For evaluating control of Greenhouse Whitefly (Trialeurodes vaporariorum) the test unit consisted of 96-well-microtiter plates containing a leaf disk of egg plant leaf disk with white fly eggs. The”, “20” for “2.5”
After application, microtiter plates were incubated at 23±1° C., 50±5% RH for 5 days. Egg and larval mortality was then visually assessed.

[5] = system: tobacco budworm (Heliothis virescens); assay: Control of tobacco budworm, insect diet with eggs (B.4)
Description: For evaluating control of tobacco budworm (Heliothis virescens) the test unit consisted of 96-well-microtiter plates containing an insect diet and 15-25 H. virescens eggs.
The compounds or mixtures were formulated using a solution containing 75% by weight water and 25% by weight DMSO. Different concentrations of formulated compounds or mixtures were sprayed onto the insect diet at 10 μl, using a custom built micro atomizer, at two replications.
as §1
After application, microtiter plates were incubated at 28+1° C., 80+5% RH for 5 days. Egg and larval mortality was then visually assessed.

[6] = 0.8 ppm, aphid mortality and fecundity after 5 days

For Cn1nc(C(F)(F)C(F)(F)F)c(C(F)(F)F)c1C(=O)Nc1ccc(Cl)c(C(=O)NCc2ccccc2)c1 [II.1, N-[4-Chloro-3-[[(phenylmethyl)amino]carbonyl]phenyl]-1-methyl-3-(1,1,2,2,2-pentafluoroethyl)-4-(trifluoromethyl)-1H-pyrazole-5-carboxamide], the “Average Control %” value [1, 6] was 0%.

With CCS(=O)(=O)c1cccnc1-c1nc2cc(C(F)(F)F)cnc2n1C [II.3-1, 2-(3-ethylsulfonyl-2-pyridyl)-3-methyl-6-(trifluoromethyl)imidazo[4,5-b]pyridine] the “Average Control %” value ([2]; 10 ppm, after 3 days) was 37.5%, the “Average Control %” value ([1]; 10 ppm, after 5 days) was 50% and the “Average Control %” value ([3]; 2 + 0 ppm, mortality of hatched crawlers after 6 days) was 25%. For the same compound, the “Average Control %” value ([4]; 50 ppm, egg and larval mortality after 5 days) was 25%.

With CCN1OC[C@@H](NC(=O)c2ccc(C3=NOC(c4cc(Cl)cc(Cl)c4)(C(F)(F)F)C3)cc2C)C1=O (stereo partly drawn) [II.4-1, 4-[5-(3,5-dichlorophenyl)-5-(trifluoromethyl)-4H-isoxazol-3-yl]-N-[(4R)-2-ethyl-3-oxo-isoxazolidin-4-yl]-2-methyl-benzamide] the “Average Control %” value ([2]; 2 ppm, aphid mortality and fecundity after 3 days) was 0% and the “Average Control %” value ([5]; 0.08 ppm, egg and larval mortality after 5 days) was 0%.

With CN(C(=O)c1ccccc1)c1cccc(C(=O)Nc2c(Br)cc(C(F)(C(F)(F)F)C(F)(F)F)cc2C(F)(F)F)c1F [compound a), broflanilide] the “Average Control %” value ([2]; 0.08 ppm, after 3 days) was 0%, the “Average Control %” value ([2]; 0.8 ppm, after 3 days) was 25% and the “Average Control %” value ([1]; 0.08 ppm, after 5 days) was 0%. The “Average Control %” value [1, 6] was 50% and 25%, the “Average Control %” value ([5]; 0.8 ppm, after 5 days) was 0% and the “Average Control %” value ([3]; 0 + 0.4 ppm, after 6 days) was 0%. For the same compound, the “Average Control %” value ([4]; 0.08 ppm, after 5 days) was 25%.

Reference: patent publication US11330820B2, “Pesticidally active mixtures” (BASF Agrochemical Products B.V., priority 2016, dated 2022)
